Results: patent publication US10111874B2, “Combination therapies for treatment of cancer” (Araxes Pharma LLC, priority 2014, dated 2018)
Also: test concentration or dose not given here.

What follows are compounds tested against T1, KRAS G12C 1-169, his-tagged protein, GDP-loaded (Homo sapiens, UniProt P01116, G12C) (assay: Biochemical assay: covalent binding to KRAS G12C analyzed by mass spectrometry). Conditions: compounds 1-47, measured at 24 h.
T1 construct: KRAS G12C 1-169, his-tagged protein, GDP-loaded
T1 sequence (P01116 1-169 isoform P01116-2 G12C): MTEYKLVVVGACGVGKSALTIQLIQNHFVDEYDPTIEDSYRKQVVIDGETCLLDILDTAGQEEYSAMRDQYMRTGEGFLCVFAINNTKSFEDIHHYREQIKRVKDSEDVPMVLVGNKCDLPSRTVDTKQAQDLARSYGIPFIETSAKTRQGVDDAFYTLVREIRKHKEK
For `C=CC(=O)N1CC(Nc2ncnc3cc(Cl)c(-c4ccccc4Cl)cc23)C1` [Compound I-30, 1-(3-(7-chloro-6-(2-chlorophenyl)quinazolin-4-ylamino)azetidin-1-yl)prop-2-en-1-one], the Binding % was “+ (+indicates binding activity from 5% to 25%)”. `C=CC(=O)N1CCN(c2ncnc3cc(F)c(-c4ccccc4Cl)cc23)CC1` [Compound I-33, 1-(4-(6-(2-chlorophenyl)-7-fluoroquinazolin-4-yl)piperazin-1-yl)prop-2-en-1-one] was tested, and the Binding % was “++ (++indicates binding activity greater than 25% and up to 50%)”. With `C=CC(=O)N1CCN(c2ncnc3cc(Cl)c(-c4cccc(Cl)c4)cc23)CC1` [Compound I-5, 1-(4-(7-chloro-6-(3-chlorophenyl)quinazolin-4-yl)piperazin-1-yl)prop-2-en-1-one] the Binding % was “+++ (+++indicates binding activity greater than 50% and up to 75%)”. `C=CC(=O)N1CCN(c2ncnc3cc(Cl)c(-c4cccnc4)cc23)CC1` [Compound I-20, 1-(4-(7-chloro-6-(pyridin-3-yl)quinazolin-4-yl)piperazin-1-yl)prop-2-en-1-one] was tested, and the Binding % was “+ (+indicates binding activity from 5% to 25%)”.

Same assay, conditions: compounds 48-246, measured at 2 h
`C=CC(=O)N1CCN(c2ncnc3cc(-c4ccccc4-c4cn[nH]c4)c(Cl)cc23)CC1` [Compound I-183, 1-(4-(7-(2-(1H-pyrazol-4-yl)phenyl)-6-chloroquinazolin-4-yl)piperazin-1-yl)prop-2-en-1-one] was tested, and the Binding % was “+++ (+++indicates binding activity greater than 50% and up to 75%)”. In the case of `C=CC(=O)N1CCN(c2ncnc3cc(-c4cccc(C(=O)N(C)C)c4F)c(Cl)cc23)CC1` [Compound I-131, 3-(4-(4-acryloylpiperazin-1-yl)-6-chloroquinazolin-7-yl)-2-fluoro-N,N-dimethylbenzamide], the Binding % is reported as “+ (+indicates binding activity from 5% to 25%)”. For `C=CC(=O)N1CCN(c2ncnc3cc(-c4cccc(F)c4)c(Cl)cc23)CC1` [Compound I-84, 1-(4-(6-chloro-7-(3-fluorophenyl)quinazolin-4-yl)piperazin-1-yl)prop-2-en-1-one], the Binding % was “++ (++indicates binding activity greater than 25% and up to 50%)”. With `C=CC(=O)N1CCN(c2ncnc3cc(-c4ccccc4F)c(Cl)cc23)CC1` [Compound I-81, 1-(4-(6-chloro-7-(2-fluorophenyl)quinazolin-4-yl)piperazin-1-yl)prop-2-en-1-one] the Binding % was “+++ (+++indicates binding activity greater than 50% and up to 75%)”. With `C=CC(=O)N1CCN(c2ncnc3cc(-c4ccccc4O)c(Cl)cc23)CC1C` (stereo not shown) [Compound I-134, 1-(4-(6-chloro-7-(2-hydroxyphenyl)quinazolin-4-yl)-2-methylpiperazin-1-yl)prop-2-en-1-one] the Binding % was “++ (++indicates binding activity greater than 25% and up to 50%)”. With `C=CC(=O)N1CCN(c2ncnc3cc(-c4ccc(F)cc4O)c(Cl)cc23)CC1` [Compound I-133, 1-0(4-(6-chloro-7-(4-fluoro-2-hydroxyphenyl)quinazolin-4-yl)piperazin-1-yl)prop-2-en-1-one] the Binding % was “++ (++indicates binding activity greater than 25% and up to 50%)”. With `C=CC(=O)N1CCN(c2cnnc3cc(-c4ccc(F)cc4F)c(Cl)cc23)CC1` [Compound I-221, 1-(4-(6-chloro-7-(2,4-difluorophenyl)cinnolin-4-yl)piperazin-1-yl)prop-2-en-1-one] the Binding % was “++ (++indicates binding activity greater than 25% and up to 50%)”. `C=CC(=O)N1CCN(c2c(C#N)cnc3cc(-c4cccc5ccccc45)c(Cl)cc23)CC1` [Compound I-171, 4-(4-acryloylpiperazin-1-yl)-6-chloro-7-(naphthalen-1-yl)quinolin-3-carbonitrile] was tested, and the Binding % was “+++ (+++indicates binding activity greater than 50% and up to 75%)”. In the case of `C=CC(=O)N1CCN(c2ncnc3cc(-c4nc(N)ncc4C)c(Cl)cc23)CC1` [Compound I-179, 1-(4-(7-(2-amino-5-methylpyrimidin-4-yl)-6-chloroquinazolin-4-yl)piperazin-1-yl)prop-2-en-1-one], the Binding % is reported as “+ (+indicates binding activity from 5% to 25%)”. `C=CC(=O)N1CCN(c2ncnc3cc(-c4c(O)ccc(F)c4F)c(Cl)cc23)CC1` [Compound I-203, 1-(4-(6-chloro-7-(2,3-difluoro-6-hydroxyphenyl)quinazolin-4-yl)piperazin-1-yl)prop-2-en-1-one] was tested, and the Binding % was “++++ (++++indicates binding activity greater than 75%)”. In the case of `C=CC(=O)N1CCN(c2ncnc3cc(-c4cccc5c4CC(=O)N5)c(Cl)cc23)CC1` [Compound I-160, 4-(4-(4-acryloylpiperazin-1-yl)-6-chloroquinazolin-7-yl)indolin-2-one], the Binding % is reported as “+ (+indicates binding activity from 5% to 25%)”. In the case of `C=CC(=O)N1CCN(c2ncnc3cc(-c4cc(OC(F)(F)F)ccc4F)c(Cl)cc23)CC1` [Compound I-141, 1-(4-(6-chloro-7-(2-fluoro-5-(trifluoromethoxy)phenyl)quinazolin-4-yl)piperazin-1-yl)prop-2-en-1-one], the Binding % is reported as “+ (+indicates binding activity from 5% to 25%)”. In the case of `C=CC(=O)N1CCN(c2ncnc3cc(-c4ccccc4-c4nccs4)c(Cl)cc23)CC1` [Compound I-186, 1-(4-(6-chloro-7-(2-(thiazol-2-yl)phenyl)quinazolin-4-yl)piperazin-1-yl)prop-2-en-1-one], the Binding % is reported as “+++ (+++indicates binding activity greater than 50% and up to 75%)”.

Same assay, conditions: compounds 247-342, measured at 30 min
With `Cc1ccc2[nH]ncc2c1-c1c(Cl)cc2c(N3CCN(C(=O)/C=C/CN(C)C)CC3)nc(-c3cncs3)nc2c1F` [Compound 333, (E)-1-(4-(6-chloro-8-fluoro-7-(5-methyl-1H-indazol-4-yl)-2-(thiazol-5-yl)quinazolin-4-yl)piperazin-1-yl)-4-(dimethylamino)but-2-en-1-one] the Binding % was “+ (+indicates binding activity from 5% to 25%)”. With `C=CC(=O)N1CCN(c2ncnc3cc(-c4c(O)cccc4F)c(Cl)c(C(F)(F)F)c23)CC1` [Compound 318, 1-(4-(6-chloro-7-(2-fluoro-6-hydroxyphenyl)-5-(trifluoromethyl)quinazolin-4-yl)piperazin-1-yl)prop-2-en-1-one] the Binding % was “+ (+indicates binding activity from 5% to 25%)”. `C=CC(=O)N1CCN(c2ncnc3cc(-c4c(C)ccc5cn[nH]c45)c(Cl)cc23)CC1` [Compound I-268, 1-(4-(6-chloro-7-(6-methyl-1H-indazol-7-yl)quinazolin-4-yl)piperazin-1-yl)prop-2-en-1-one] was tested, and the Binding % was “+++ (+++indicates binding activity greater than 50% and up to 75%)”. `C=CC(=O)N1CCN(c2nc(=O)[nH]c3cc(-c4c(C)ccc5[nH]ncc45)c(Cl)cc23)CC1` [Compound 326, 4-(4-acryloylpiperazin-1-yl)-6-chloro-7-(5-methyl-1H-indazol-4-yl)quinazolin-2(1H)-one] was tested, and the Binding % was “+ (+indicates binding activity from 5% to 25%)”. `C=CC(=O)N1CCN(c2ncnc3cc(-c4c(O)cccc4C#N)c(Cl)cc23)CC1` [Compound I-265, 2-(4-(4-acryloylpiperazin-1-yl)-6-chloroquinazolin-7-yl)-3-hydroxybenzonitrile] was tested, and the Binding % was “+ (+indicates binding activity from 5% to 25%)”. In the case of `CN(C)C/C=C/C(=O)N1CCN(c2c(C#N)cnc3c(F)c(-c4cc(O)cc5ccccc45)c(Cl)cc23)CC1` [Compound 310, (E)-6-chloro-4-(4-(4-(dimethylamino)but-2-enoyl)piperazin-1-yl)-8-fluoro-7-(3-hydroxynaphthalen-1-yl)quinoline-3-carbonitrile], the Binding % is reported as “++++ (++++indicates binding activity greater than 75%)”. In the case of `Cc1ccc2[nH]ncc2c1-c1c(Cl)cc2c(N3CCN(C(=O)/C=C/CN)CC3)ncnc2c1F` [Compound 311, (E)-4-amino-1-(4-(6-chloro-8-fluoro-7-(5-methyl-1H-indazol-4-yl)quinazolin-4-yl)piperazin-1-yl)but-2-en-1-one], the Binding % is reported as “+++ (+++indicates binding activity greater than 50% and up to 75%)”. In the case of `C=CC(=O)N1CCN(c2nc(OCCCN(C)C)nc3c(F)c(-c4c(C)ccc5[nH]ncc45)c(Cl)cc23)CC1` [Compound 339, 1-(4-(6-chloro-2-(3-(dimethylamino)propoxy)-8-fluoro-7-(5-methyl-1H-indazol-4-yl)quinazolin-4-yl)piperazin-1-yl)prop-2-en-1-one], the Binding % is reported as “++++ (++++indicates binding activity greater than 75%)”.

Same assay, conditions: determined at 2 hrs
In the case of `C=CC(=O)N1CC(N2CCN(C(=O)[C@H](C)Nc3cc(C4CC4)c(Cl)cc3O)CC2)C1` [II-67, (S)-1-(3-(4-(2-((4-Chloro-5-cyclopropyl-2-hydroxyphenyl)amino)propanoyl)piperazin-1-yl)azetidin-1-yl)prop-2-en-1-one], the Binding % is reported as “++ (++indicates binding activity greater than 20%)”. In the case of `C=CC(=O)N1CC(N2CCN(C(=O)CNc3cc(C4CC4)c(Cl)cc3O)CC2C(N)=O)C1` (stereo not shown) [II-51, 1-(1-acryloylazetidin-3-yl)-4-(2-(4-chloro-5-cyclopropyl-2-hydroxyphenylamino)acetyl)piperazine-2-carboxamide], the Binding % is reported as “++ (++indicates binding activity greater than 20%)”. In the case of `C=CC(=O)N1CC(N2CCN(C(=O)CNc3cc(CC)c(Cl)cc3O)CC2)C1` [II-55, 1-(3-(4-(2-(4-chloro-5-ethyl-2-hydroxyphenylamino)acetyl)piperazin-1-yl)azetidin-1-yl)prop-2-en-1-one], the Binding % is reported as “++ (++indicates binding activity greater than 20%)”.

Same assay, conditions: determined at 24 hrs
For `C=CC(=O)N1CC(N2CCN(C(=O)CCn3c(=O)[nH]c4cc(Cl)c(Cl)cc43)CC2)C1` [II-21, 1-(3-(4-(1-acryloylazetidin-3-yl)piperazin-1-yl)-3-oxopropyl)-5,6-dichloro-1H-benzo[d]imidazol-2(3H)-one], the Binding % was “+ (+indicates binding activity from 5% to 15%)”. For `C=CC(=O)N1CC(N2CCN(C(=O)CNc3cc(S(C)(=O)=O)ccc3O)CC2)C1` [II-34, 1-(3-(4-(2-(2-hydroxy-5-(methylsulfonyl)-phenylamino)acetyl)-piperazin-1-yl)azetidin-1-yl)prop-2-en-1-one], the Binding % was “+ (+indicates binding activity from 5% to 15%)”. For `C=CC(=O)N1CC(N2CCN(C(=O)CNc3cc(Cl)c(Cl)c(C(N)=O)c3)CC2)C1` [II-44, 5-(2-(4-(1-acryloylazetidin-3-yl)piperazin-1-yl)-2-oxoethylamino)-2,3-dichlorobenzamide], the Binding % was “+ (+indicates binding activity from 5% to 15%)”.
